In US7732443B2, “Therapeutic substituted cyclopentanes” (priority 2008, dated 2010):

Test system: laser-induced hypertensive monkeys
Assay: Intraocular pressure (IOP) in laser-induced hypertensive monkeys
Format: in vivo
Details: not given

Compound | intraocular pressure (IOP) change from baseline
CCCCCC(O)c1ccc(C2C(O)CC(Cl)C2Cc2cccc(CCC(=O)OCCO)c2)cc1 (centres unmarked) [Compound 25a] | decreases from baseline
CCCCCC(O)c1ccc(C2C(O)CC(Cl)C2Cc2cccc(CCC(=O)OCCN3CCOCC3)c2)cc1 (centres unmarked) [Compound 25b] | decreases from baseline
CCCCCC(O)c1ccc(C2C(O)CC(Cl)C2CCCc2ncc(C(=O)OCCO)s2)cc1 (centres unmarked) [Compound 34a] | decreases from baseline
CCCCCC(O)c1ccc(C2C(O)CC(Cl)C2CCCc2ncc(C(=O)OCCN3CCOCC3)s2)cc1 (centres unmarked) [Compound 34b] | decreases from baseline
CCCCCC(O)c1ccc(C2C(O)CC(F)C2CC=CCCCC(=O)OCCO)cc1 (centres unmarked) [Compound 40a] | decreases from baseline
CCCCCC(O)c1ccc(C2C(O)CC(F)C2CC=CCCCC(=O)OCCN2CCOCC2)cc1 (centres unmarked) [Compound 40b] | decreases from baseline
CCCCCC(O)c1ccc(C2C(O)CC(Cl)C2CC=CCCCC(=O)OCCO)cc1 (centres unmarked) [Compound 46a] | decreases from baseline
CCCCCC(O)c1ccc(C2C(O)CC(Cl)C2CC=CCCCC(=O)OCCN2CCOCC2)cc1 (centres unmarked) [Compound 46b] | decreases from baseline
CCCCCC(O)c1ccc(C2C(O)CC(Cl)C2CC=CCCCC(=O)OCCO)cc1 (centres unmarked) [Compound 51a] | decreases from baseline
CCCCCC(O)c1ccc(C2C(O)CC(Cl)C2CC=CCCCC(=O)OCCN2CCOCC2)cc1 (centres unmarked) [Compound 51b] | decreases from baseline
CCCCCCc1ccc(C2C(O)CC(Cl)C2CC=CCCCC(=O)OCCO)cc1 (centres unmarked) [Compound 63a] | decreases from baseline
CCCCCCc1ccc(C2C(O)CC(Cl)C2CC=CCCCC(=O)OCCN2CCOCC2)cc1 (centres unmarked) [Compound 63b] | decreases from baseline
CCCCCC(O)c1ccc(C2C(O)CC(Cl)C2CC=CCCCC(=O)OCCO)cc1 (centres unmarked) [Compound 68a] | decreases from baseline
CCCCCC(O)c1ccc(C2C(O)CC(Cl)C2CC=CCCCC(=O)OCCN2CCOCC2)cc1 (centres unmarked) [Compound 68b] | decreases from baseline

Test system: normotensive dogs
Assay: Intraocular pressure (IOP) in normotensive dogs
Format: in vivo
Details: not given
Experimental: Compounds from above are tested in vivo to measure its ability to reduce intraocular pressure. Compound 14a is tested in normotensive dogs.

Compound | intraocular pressure (IOP) change from baseline
CCCCCC(O)c1ccc(C2C(O)CC(Cl)C2Cc2cccc(CCC(=O)OCCO)c2)cc1 (centres unmarked) [Compound 25a] | decreases from baseline
CCCCCC(O)c1ccc(C2C(O)CC(Cl)C2Cc2cccc(CCC(=O)OCCN3CCOCC3)c2)cc1 (centres unmarked) [Compound 25b] | decreases from baseline
CCCCCC(O)c1ccc(C2C(O)CC(Cl)C2CCCc2ncc(C(=O)OCCO)s2)cc1 (centres unmarked) [Compound 34a] | decreases from baseline
CCCCCC(O)c1ccc(C2C(O)CC(Cl)C2CCCc2ncc(C(=O)OCCN3CCOCC3)s2)cc1 (centres unmarked) [Compound 34b] | decreases from baseline
CCCCCC(O)c1ccc(C2C(O)CC(F)C2CC=CCCCC(=O)OCCO)cc1 (centres unmarked) [Compound 40a] | decreases from baseline
CCCCCC(O)c1ccc(C2C(O)CC(F)C2CC=CCCCC(=O)OCCN2CCOCC2)cc1 (centres unmarked) [Compound 40b] | decreases from baseline
CCCCCC(O)c1ccc(C2C(O)CC(Cl)C2CC=CCCCC(=O)OCCO)cc1 (centres unmarked) [Compound 46a] | decreases from baseline
CCCCCC(O)c1ccc(C2C(O)CC(Cl)C2CC=CCCCC(=O)OCCN2CCOCC2)cc1 (centres unmarked) [Compound 46b] | decreases from baseline
CCCCCC(O)c1ccc(C2C(O)CC(Cl)C2CC=CCCCC(=O)OCCO)cc1 (centres unmarked) [Compound 51a] | decreases from baseline
CCCCCC(O)c1ccc(C2C(O)CC(Cl)C2CC=CCCCC(=O)OCCN2CCOCC2)cc1 (centres unmarked) [Compound 51b] | decreases from baseline
CCCCCCc1ccc(C2C(O)CC(Cl)C2CC=CCCCC(=O)OCCO)cc1 (centres unmarked) [Compound 63a] | decreases from baseline
CCCCCCc1ccc(C2C(O)CC(Cl)C2CC=CCCCC(=O)OCCN2CCOCC2)cc1 (centres unmarked) [Compound 63b] | decreases from baseline
CCCCCC(O)c1ccc(C2C(O)CC(Cl)C2CC=CCCCC(=O)OCCO)cc1 (centres unmarked) [Compound 68a] | decreases from baseline
CCCCCC(O)c1ccc(C2C(O)CC(Cl)C2CC=CCCCC(=O)OCCN2CCOCC2)cc1 (centres unmarked) [Compound 68b] | decreases from baseline

Test system: lashes and adjacent hairs of patients
Assay: Lash and hair appearance in glaucoma patients treated in one eye only
Format: in vivo
Details: glaucoma patient treated in one eye
Excerpt: In the course of treating patients having glaucoma, treatment may only be appropriate in one eye. […] The lash appearance on the lids of the treated eyes would have appeared quite attractive if it represented a bilateral phenomenon. As a result of its asymmetric nature, the long lashes on one side could be construed as disturbing from a cosmetic standpoint. A systemic examination was preformed as a result of the asymmetric phenomenon. It soon became apparent that this altered appearance was not an isolated finding. […] Definite differences could be identified to varying degrees in the lashes and adjacent hairs of all patients who were taking the drug on a unilateral basis for longer than 6 months.
The changes in the lashes were apparent on gross inspection in several patients once attention was focused on the issue. In those with light colored hair and lashes, the differences were only seen easily with the aid of the high magnification and lighting capabilities of the slit lamp biomicroscope. In the course of glaucoma follow-up examination, attention is generally immediately focused on the eye itself. As a result of the high power magnification needed only one eye is seen at a time and the eye is seen at a high enough power that the lashes are not in focus. […]

Compound | lash appearance, treated eye versus non-treated eye
CCNC(=O)CCC/C=C\C[C@@H]1[C@@H](/C=C/[C@@H](O)CCc2ccccc2)[C@H](O)C[C@@H]1O [bimatoprost] | longer, thicker, and fuller in the treated eye than in the non-treated eye
